Source: ChEMBL document CHEMBL3865833, “Functional induction of P-glycoprotein efflux pump by phenyl benzenesulfonamides: Synthesis and biological evaluation of T0901317 analogs” (Eur J Med Chem, 2016)
The source made the active and inactive calls. The calls are words filed in the database; no cut-off is given here.

What was measured:
[1] = Therapeutic index, ratio of effective concentration for cytotoxicity in human LS180 cells to effective concentration for activation of PXR/LXR in human LS180 cells assessed as induction of P-gp; type: cell-based; settings: read-out: TI
[2] = Cytotoxicity against human LS180 cells assessed as effect on cell viability at 50 uM measured after 24 hrs by MTT assay relative to control; type: toxicity, cell-based; settings: read-out: Activity
[3] = Cytotoxicity against human SH-SY5Y cells assessed as effect on cell viability at 50 uM measured after 24 hrs by MTT assay relative to control; type: toxicity, cell-based; settings: read-out: Activity
[4] = test system: LS180; assay: (§1) Activation of PXR/LXR in human LS180 cells assessed as induction of P-gp measured as intracellular accumulation of Rhodamine-123 at 5 uM preincubated for 48 hrs followed by 40 mins incubation with HANKS buffer and subsequent addition of Rhodamine-123 measured after 90 mins by fluorescence analysis relative to control; type: cell-based
[5] = Therapeutic index, ratio of effective concentration for cytotoxicity in human SH-SY5Y cells to effective concentration for activation of PXR/LXR in human LS180 cells assessed as induction of P-gp; type: cell-based; settings: read-out: TI
[6] = test system: LS180; assay: as §1, with “by measuring decrease in” for “measured as”, “0.3” for “5”, “assay” for “analysis relative to control”; type: cell-based

Compound: Cc1ccc(-n2cc(CN(c3ccc(C(O)(C(F)(F)F)C(F)(F)F)cc3)S(=O)(=O)c3ccccc3)nn2)cc1
- selectivity ratio [1]: 10
- viability at 24 h, 50 µM [2]: 71.9%
- viability at 24 h, 50 µM [3]: 48.9%
- Activity [4]: 74.6%

Compound: Cc1ccc(C)c(-n2cc(CN(c3ccc(C(O)(C(F)(F)F)C(F)(F)F)cc3)S(=O)(=O)c3ccccc3)nn2)c1
- selectivity ratio [1]: 10
- viability at 24 h, 50 µM [2]: 76.9%
- viability at 24 h, 50 µM [3]: 93%
- Activity [4]: 69%
- selectivity ratio [5]: 10

Compound: O=[N+]([O-])c1ccc(-n2cc(CN(c3ccc(C(O)(C(F)(F)F)C(F)(F)F)cc3)S(=O)(=O)c3ccccc3)nn2)cc1
- selectivity ratio [1]: 10
- viability at 24 h, 50 µM [2]: 66.2%
- viability at 24 h, 50 µM [3]: 39.6%
- Activity [4]: 80.6%
- selectivity ratio [5]: 10

Compound: O=S(=O)(c1ccccc1)N(Cc1cn(-c2ccc(C(F)(F)F)cc2)nn1)c1ccc(C(O)(C(F)(F)F)C(F)(F)F)cc1
- selectivity ratio [1]: 10
- viability at 24 h, 50 µM [2]: 62.8%
- viability at 24 h, 50 µM [3]: 49.8%
- Activity [4]: 70.2%
- selectivity ratio [5]: 10

Compound: CC(=O)c1ccc(N(Cc2cn(-c3ccc(C(O)(C(F)(F)F)C(F)(F)F)cc3)nn2)S(=O)(=O)c2ccccc2)cc1
- viability at 24 h, 50 µM [2]: 103%
- viability at 24 h, 50 µM [3]: 123%
- Activity [4]: 87.4%

Compound: CC(=O)c1ccc(N(Cc2cn(-c3ccccc3)nn2)S(=O)(=O)c2ccccc2)cc1
- Activity [6]: Active
- viability at 24 h, 50 µM [2]: 86.3%
- viability at 24 h, 50 µM [3]: 114%
- Activity [4]: 53.4%
- selectivity ratio [5]: 10

Compound: CC(=O)c1ccc(N(Cc2cn(-c3ccc(F)cc3)nn2)S(=O)(=O)c2ccccc2)cc1
- viability at 24 h, 50 µM [2]: 60%
- viability at 24 h, 50 µM [3]: 90.4%
- Activity [4]: 55.9%
- selectivity ratio [5]: 10

Compound: CC(=O)c1ccc(N(Cc2cn(-c3ccccc3F)nn2)S(=O)(=O)c2ccccc2)cc1
- viability at 24 h, 50 µM [2]: 83.8%
- viability at 24 h, 50 µM [3]: 93.6%
- Activity [4]: 55.7%
- selectivity ratio [5]: 10

Compound: CC(=O)c1ccc(N(Cc2cn(-c3ccc(Cl)cc3)nn2)S(=O)(=O)c2ccccc2)cc1
- selectivity ratio [1]: 10
- viability at 24 h, 50 µM [2]: 88.1%
- viability at 24 h, 50 µM [3]: 74.4%
- Activity [4]: 68.8%

Compound: CC(=O)c1ccc(N(Cc2cn(-c3ccccc3C)nn2)S(=O)(=O)c2ccccc2)cc1
- selectivity ratio [1]: 10
- viability at 24 h, 50 µM [2]: 64.4%
- viability at 24 h, 50 µM [3]: 92.9%
- Activity [4]: 65.1%
- selectivity ratio [5]: 10

Compound: O=S(=O)(c1ccccc1)N(Cc1cn(-c2ccccc2)nn1)c1ccc(C(O)(C(F)(F)F)C(F)(F)F)cc1
- selectivity ratio [1]: 10
- viability at 24 h, 50 µM [2]: 46.4%
- viability at 24 h, 50 µM [3]: 39.5%
- Activity [4]: 87.9%
- selectivity ratio [5]: 10

Compound: C#CCN(c1ccc(C(O)(C(F)(F)F)C(F)(F)F)cc1)S(=O)(=O)c1ccccc1
- selectivity ratio [1]: 10
- viability at 24 h, 50 µM [2]: 89.5%
- viability at 24 h, 50 µM [3]: 112%
- Activity [4]: 60.8%
- selectivity ratio [5]: 10

Compound: CC(=O)c1ccc(N(Cc2cn(-c3ccc(O)c([N+](=O)[O-])c3)nn2)S(=O)(=O)c2ccccc2)cc1
- selectivity ratio [1]: 10
- viability at 24 h, 50 µM [2]: 96.1%
- viability at 24 h, 50 µM [3]: 71.3%
- Activity [4]: 74%
- selectivity ratio [5]: 10

Compound: CC(=O)c1ccc(-n2cc(CN(c3ccc(C(O)(C(F)(F)F)C(F)(F)F)cc3)S(=O)(=O)c3ccccc3)nn2)cc1
- selectivity ratio [1]: 10
- viability at 24 h, 50 µM [2]: 70.7%
- viability at 24 h, 50 µM [3]: 42.2%
- Activity [4]: 81.6%
- selectivity ratio [5]: 10

Compound: CC(=O)c1ccc(N(Cc2cn(-c3cccc([N+](=O)[O-])c3)nn2)S(=O)(=O)c2ccccc2)cc1
- selectivity ratio [1]: 10
- viability at 24 h, 50 µM [2]: 112%
- viability at 24 h, 50 µM [3]: 74.2%
- Activity [4]: 71.6%
- selectivity ratio [5]: 10

Compound: CC(=O)c1ccc(N(Cc2cn(-c3ccc(C)cc3)nn2)S(=O)(=O)c2ccccc2)cc1
- selectivity ratio [1]: 10
- viability at 24 h, 50 µM [2]: 84.1%
- viability at 24 h, 50 µM [3]: 85.8%
- Activity [4]: 58.6%
- selectivity ratio [5]: 10

Compound: C#CCOC(c1ccc(N(CC#C)S(=O)(=O)c2ccccc2)cc1)(C(F)(F)F)C(F)(F)F
- selectivity ratio [1]: 10
- viability at 24 h, 50 µM [2]: 78.7%
- viability at 24 h, 50 µM [3]: 88.7%
- Activity [4]: 79.7%
- selectivity ratio [5]: 10

Compound: CC(=O)c1ccc(N(Cc2cn(-c3c(C)cccc3C)nn2)S(=O)(=O)c2ccccc2)cc1
- selectivity ratio [1]: 10
- viability at 24 h, 50 µM [2]: 60.6%
- viability at 24 h, 50 µM [3]: 80.4%
- Activity [4]: 58.4%
- selectivity ratio [5]: 10

Compound: COc1ccc(-n2cc(CN(c3ccc(C(O)(C(F)(F)F)C(F)(F)F)cc3)S(=O)(=O)c3ccccc3)nn2)cc1
- selectivity ratio [1]: 10
- viability at 24 h, 50 µM [2]: 84.9%
- viability at 24 h, 50 µM [3]: 59.2%
- Activity [4]: 81.4%
- selectivity ratio [5]: 10
